Several values for one entry are separate records, joined by “and”; a condition that tells them apart may be missing. Identical values can stand only once. Like-named read-outs stand apart in the source and are kept apart here.
Legend:
TRKB:PLC-γ1 interaction = TRKB:PLC-γ1 interaction ELISA in MG87 cells expressing TRKB; type: cell-based, mouse; details: cholesterol 20 μM/15 min
Description: The cell line NIH 3T3 (mouse fibroblasts) stably transfected to express TRKB or TRKA (MG87.TRKB or MG87.TRKA, respectively) were used for in vitro assays ([Antila et al., 2014]), N2A and HEK293T cells were used to overexpress GFP-tagged TRKB for binding assays. The cells were maintained at 5% CO2, 37°C in Dulbecco’s Modified Eagle’s Medium (DMEM, containing 10% fetal calf serum, 1% penicillin/streptomycin, 1% L-glutamine, and, in the case of MG87.TRKB cells, with […] of G418). The cell lines used in the present study were not authenticated or genotyped for sex.
The TRKB:pY (phosphorylated TRKB), TRKB:PLC-γ1, PLC-γ1:pTRKB.Y816 interactions and were determined by ELISA, based on the general method described in literature ([Antila et al., 2014]; [Fred et al., 2019]), with minor adjustments. Briefly, white 96-well plates (OptiPlate 96F-HB, Perkin Elmer) were coated with capturing anti-TRKB or PLC-γ1 antibody (1:1000) in carbonate buffer (pH = 9.8) overnight (ON) at 4°C. Following a blocking step with 2%BSA in TBS-T (2 h, RT), samples were incubated ON at 4°C. […] Finally, the chemiluminescent signal generated by the reaction with ECL was analyzed in a plate reader (Varioskan Flash, Thermo Scientific).

surface TRKB = assay: Surface TRKB ELISA in MG87.TRKB cells; type: cell-based, mouse; details: cholesterol 20 μM/15 min
Description: The surface levels of TRKB were also determined by ELISA ([Zheng et al., 2008]). Briefly, the MG87.TRKB cells or primary cortical cells from rat or mouse embryos, cultivated in clear bottom 96-well plates (ViewPlate 96, Perkin Elmer), were washed with ice-cold PBS and fixed with 100μl of 4% PFA per well. After washing with PBS and blocking with PBS containing 5% nonfat dry milk and 5% BSA, the samples were incubated with primary anti-TRKB antibody (R&D Systems, #AF1494, 1:1000 in blocking buffer) or anti-GluR1 subunit of AMPA receptors (CST, #8850, 1:2000 in blocking buffer) ON at 4°C. Following washing, the samples were incubated with HRP-conjugated anti-goat or anti-rabbit IgG (1:5000 in blocking buffer) for 1h at RT. The cells were washed 4x with 200μl of PBS for 10 min each. Finally, the chemiluminescent signal generated by reaction with ECL was analyzed in a plate reader.

[1] = test system: GluR1 subunit of AMPA receptors; assay: Surface GluR1 ELISA in rat cortical cells; type: cell-based
Description: (§1) Briefly, the MG87.TRKB cells or primary cortical cells from rat or mouse embryos, cultivated in clear bottom 96-well plates (ViewPlate 96, Perkin Elmer), were washed with ice-cold PBS and fixed with 100μl of 4% PFA per well. […] Following washing, the samples were incubated with HRP-conjugated anti-goat or anti-rabbit IgG (1:5000 in blocking buffer) for 1h at RT. The cells were washed 4x with 200μl of PBS for 10 min each. Finally, the chemiluminescent signal generated by reaction with ECL was analyzed in a plate reader.

[2] = test system: GluR1 subunit of AMPA receptors; assay: Surface GluR1 ELISA in cortical cells of TRKB.Y433F mice; type: cell-based, mouse
Description: as §1

mice = assay: Object location memory (OLM) test; type: in vivo, mouse
Description: Object-location memory (OLM): this test was performed in a square arena (28cm side) with opaque walls containing cues (black stripes or spots). The adult male and female mice (18-22 weeks old) were placed for 3 consecutive days (15min per session) in the arena with two identical objects (table tennis balls glued to caps of 50ml Falcon tubes) in the same position throughout the sessions (pretest).

[3] = prefrontal cortex, individual mice; for FLX uM**: fluoxetine MW 309g/mol
Sprague-Dawley rats = assay: BDNF-induced LTP in dentate gyrus of anesthetized rats; type: in vivo, rat; details: anesthetized rats, 2 μl of 1 ug/ul over 30 min
Description: In vivo electrophysiology. Intrahippocampal BDNF infusion was performed as described previously ([Messaoudi et al., 1998]). The experiments were carried out on 20 adult male Sprague-Dawley rats (15 weeks old, Janvier, France). Rats were housed in the animal facility for 1-week prior to the start of drug administration. […]
For electrophysiological experiments, rats were anesthetized with an intraperitoneal injection of urethane (U2500, Sigma-Aldrich) 1.5 g/kg body weight, positioned in a stereotaxic frame. The body temperature was constantly monitored and maintained at 37°C with an electric heating pad. Holes were drilled in the skull and a concentric bipolar stimulating electrode (Tip separation 500micrometers; SNEX 100; Rhodes Medical Instruments, Woodland Hills, CA) was positioned in the angular bundle for stimulation of the medial perforant path (7.9 mm posterior to bregma, 4.2 mm lateral to the midline, and 2.5 mm below the dura. […]
Responses were allowed to stabilize for 1 hour at a stimulation intensity that produced a population spike 30% of maximum. […] Evoked responses were recorded for 120 min post infusion. Recorded field potentials were amplified, filtered (0.1 Hz to 10 kHz), and digitized (25 kHz). Electrophysiological data was analyzed using Datawave Technologies Software company. […]

CC(C)CCC[C@@H](C)[C@H]1CC[C@H]2[C@@H]3CC=C4C[C@@H](O)CC[C@]4(C)[C@H]3CC[C@]12C [CHOL, cholesterol]
interaction of TRKB with PLC-γ1 (TRKB:PLC-γ1 interaction): promoted the interaction of TRKB
cell surface translocation of TRKB (surface TRKB): increased cell surface translocation of TRKB

CNCCC(Oc1ccc(C(F)(F)F)cc1)c1ccccc1 (centres unmarked) [FLX, fluoxetine]
cell surface localization of GluR1 subunits of AMPA receptors [1]: increased cell surface localization of GluR1 subunits
increase in surface GluR1 in neurons from TRKB.Y433F mutant mice [2]: prevented
response in OLM test (mice; BDNF haploinsufficient mice): lack of response
long-term memory in OLM test (mice; TRKB.wt mice, FLX 15 mg/kg/day for 7 days): facilitated long-term memory
response in OLM test (mice; animals co-treated with pravastatin): lack of response
response in OLM test (mice; serotonin transporter knockout (5HTT.ko) mice): responded to FLX treatment normally
FLX ([3]; genotype het, 15mg/kg in drinking water 21 days, 15 mg/kg): 1.368 µg/mL and 0.379 µg/mL and 2.739 µg/mL
FLX ([3]; genotype het, brain density 1.045g/ml): 9.69 µg/mL and 6.28 µg/mL and 21.21 µg/mL
FLX uM** ([3]; genotype het): 31.36 µM and 20.34 µM and 68.63 µM
FLX ug/g wet tissue ([3]; genotype het): 9.273 ug/g wet tissue and 6.013 ug/g wet tissue and 20.292 ug/g wet tissue
FLX ([3]; genotype wt, 15mg/kg in drinking water 21 days, 15 mg/kg): 1.575 µg/mL and 1.642 µg/mL and 1.024 µg/mL and 1.497 µg/mL and 0.393 µg/mL
FLX ([3]; genotype wt, brain density 1.045g/ml): 4.03 µg/mL and 11.14 µg/mL and 6.93 µg/mL and 10.29 µg/mL and 9.31 µg/mL
FLX uM** ([3]; genotype wt): 13.04 µM and 36.06 µM and 22.42 µM and 33.30 µM and 30.13 µM
FLX ug/g wet tissue ([3]; genotype wt): 3.856 ug/g wet tissue and 10.662 ug/g wet tissue and 6.629 ug/g wet tissue and 9.846 ug/g wet tissue and 8.908 ug/g wet tissue

B1: BDNF: brain-derived neurotrophic factor, TRKB ligand (protein, UniProt P23560 19-247, looked up)
Neurotrophic factor BDNF …: APMKEANIRGQGGLAYPGVRTHGTLESVNGPKAGSRGLTSLADTFEHVIEELLDEDQKVRPNEENNKDADLYTSRVMLSSQVPLEPPLLFLLEEYKNYLDAANMSMRVRRHSDPARRGELSVCDSISEWVTAADKKTAVDMSGGTVTVLEKVPVSKGQLKQYFYETKCNPMGYTKEGCRGIDKRHWNSQCRTTQSYVRALTMDSKKRIGWRFIRIDTSCVCTLTIKRGR
synaptic strength after infusion into the dentate gyrus (Sprague-Dawley rats): significantly increased synaptic strength

— article PMC7938888, “Antidepressant drugs act by directly binding to TRKB neurotrophin receptors” (Cell, 2021)
